Assay: gradient 5% acetonitrile 3 min, to 50% in 2 min, to 85% in 15 min, held 3 min, 100 µL/min
Conditions: column: Zorbax Extend-C18 2.1 x 50 mm; eluents: water / acetonitrile, 0.1% formic acid
Method in brief: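 Retention time was recorded from adduct peaks, which were picked computationally and each inspected manually. Pure standards ran in mixtures of ~100 molecules on HPLC coupled to a quadrupole time-of-flight mass spectrometer, in positive and negative ionization mode, through a Zorbax Extend-C18 column (2.1 × 50 mm, 1.8 μm) at 100 μL/min. Eluents were water and acetonitrile, each with 0.1% formic acid.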

Row | SMILES | RP-LC retention time [s]
1 | CCc1nc2cc(-c3noc(/C=C/c4ccco4)n3)ccc2o1 | 1090
2 | Cc1ccc(F)cc1NS(=O)(=O)c1cc2n(c1)CCN(CC(C)C)C2=O | 840
3 | CC1CN(CCc2ccccc2)c2nc3c(c(=O)n(CCN4CCOCC4)c(=O)n3C)n2C1 (stereo not given) | 680
4 | CCn1c(=O)c2ccn(CC(=O)Nc3ccc4c(c3)OCCO4)c2n(CC)c1=O | 701
5 | CCC1CCCCN1CCCNC(=O)C1CCN(c2ncnc3onc(C)c23)CC1 (stereo not given) | 579
6 | O=C(Nc1ccc(F)cc1)N1CCC(n2cnc3ccc(Cl)cc3c2=O)CC1 | 828
7 | CCOc1ccc(OCC)c(NC(=O)C2CC(=O)N(c3cccc(NC(C)=O)c3)C2)c1 (stereo not given) | 772
8 | O=C(Cn1nc(N2CCOCC2)c2ccccc2c1=O)Nc1ccc(C(F)(F)F)cc1 | 898
9 | O=C(NC1CCCC1)C1CCN(c2nc3ccc(-c4cncnc4)nc3s2)CC1 | 776
10 | O=C(C1CCCN(c2ncnc3c2nc2n3CCCCC2)C1)N1CCOCC1 (stereo not given) | 1270
11 | CN(Cc1nc(-c2ccc(N3CCCC3)nc2)no1)C1CCCCC1 | 569
12 | CC(=O)SCC(Cc1ccccc1)C(=O)NCC(=O)OCc1ccccc1 (stereo not given) | 1080
13 | CCc1ccc(C2=C(C)C(N3CCCN(C(=O)C4CCCC4)CC3)=NS2(=O)=O)cc1 | 946
14 | CN1CCN(CCCNC(=O)c2cc3occc3c(Nc3ccc(Cl)cc3)n2)CC1 | 620
15 | O=C(Nc1ccc(F)c(F)c1)C1CCN(c2cc(N3CCSCC3)ncn2)CC1 | 709
16 | CCNc1nc(NC(C)C)nc(-c2ccncc2)n1 | 733

Row | SMILES | RP-LC retention time [s]
17 | COc1ccc(C(=O)Nc2nc(-c3ccc4c(c3)NC(=O)C(C)O4)cs2)cc1 (stereo not given) | 877
18 | Cc1ccc(Nc2c(-c3ccc(N(C)C)cc3)nc3ccc(C)cn23)cc1 | 839
19 | CCOCC(=O)N1CCCN(C2=NS(=O)(=O)C(c3ccc(CC)cc3)=C2C)CC1 | 790
20 | COC(=O)c1ncoc1-c1ccccc1C(=O)NC1CCCC1 | 699
21 | COc1ccc(N2CCN(c3cc(SCC(=O)Nc4ccc(C)c(Cl)c4)ncn3)CC2)cc1 | 1100
22 | O=C(c1ccc(Cl)cc1)N1CCCCC(Sc2ncnc3sccc23)C1=O (stereo not given) | 1050
23 | COc1cc(NC(=O)CCSc2nc3c(=O)n(C)c(=O)n(C)c3n2C)c(OC)cc1Cl | 735
24 | COc1ccc2nc(-n3nc(C)cc3NC(=O)c3ccc([N+](=O)[O-])o3)sc2c1 | 1220
25 | CC(NC(=O)COc1ccc(NC(=O)C2CC2)cn1)c1ccccc1 (stereo not given) | 744
26 | COc1ccc(S(=O)(=O)N2CCCC(C(=O)NCC3CCCO3)C2)cc1OC (stereo not given) | 684
27 | COc1ccc(-c2nc3cnccn3c2Nc2cccc(C(=O)NCc3ccco3)c2)cc1 | 741
28 | COCCN1C(=O)[C@H]2CN(Cc3cccc(Br)c3)C[C@H]2C1=O | 656
29 | CCN(CC)CCNc1ccc(CO)c2sc3ccccc3c(=O)c12 | 646
30 | CCn1c(C(=O)N2CCN(c3cccc(C)c3C)CC2)cc2sccc21 | 1070
31 | COc1cc(COc2cc(N)c(Cl)cc2C(=O)CCC2CCN(CCNS(C)(=O)=O)CC2)cc(OC)c1 | 761

Further lines, results first:

Row | RP-LC retention time [s] | SMILES
32 | 1350 | CCCN1C(=O)COc2ccc(-c3noc(-c4cccc(Cl)c4)n3)cc21
33 | 953 | O=C(Cc1ccc(Br)cc1)N1CCN(c2cc(-c3ccc(Cl)cc3)[nH]n2)CC1
34 | 722 | O=C(Cc1nnc2c(-c3nc(C4CC4)no3)cccn12)N1CCc2ccccc2C1
35 | 1010 | CCCn1cc(C2=CCN(C(=O)Nc3ccc(C)c(C)c3)CC2)c2cccnc21
36 | 851 | O=C(Cc1csc2nc(-c3ccccc3)cn12)NC1CCCc2ccccc21 (stereo not given)
37 | 928 | O=C(NCc1nc(-c2ccc3c(c2)Sc2ccccc2C(=O)N3C2CC2)no1)c1cccs1
38 | 602 | O=C(NCCCN1CCOCC1)c1nc2ccccn2c1-c1ccc(F)cc1
39 | 891 | Cc1oc2ccn(Cc3ccccc3F)c(=O)c2c1C(=O)NCC1CCCO1 (stereo not given)
40 | 1200 | COc1ccc(N2CC(c3noc(-c4ccc(C(C)(C)C)cc4)n3)CC2=O)cc1 (stereo not given)
41 | 619 | Cc1nc2cccnc2n1C1CCN(C(=O)Nc2ccc(F)cc2F)CC1
42 | 890 | Cc1ccccc1NC(=O)c1sc(-c2cn(C)c3ncccc23)nc1C
43 | 705 | O=C(Cc1ccccc1F)NC1CCN(c2cc(-c3cccs3)[nH]n2)C1 (stereo not given)
44 | 637 | CCc1ccccc1S(=O)(=O)Cc1ccc(C(=O)N2CCN(c3ccccn3)CC2)o1
45 | 922 | COc1ccc(N2CC(c3noc(-c4cccc(OC)c4)n3)CC2=O)cc1 (stereo not given)

Source: the METLIN SMRT retention time set (Domingo-Almenara et al. 2019)
